Assay results taken from patent US8338422B2, “Indolin-2-ones and aza-indolin-2-ones” (Janssen Pharmaceutica NV, priority 2007, dated 2012).

What was measured:
AuroraB (h) = AuroraB (h) (Homo sapiens, UniProt Q96GD4); assay: Aurora-B human kinase assay (SPA); format: biochemical; conditions: for IC50: read-out: AuroraB pIC50 (converted)
Outline: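 Scintillation proximity assay: AuroraB (h) at 0.5 μg/ml with 3 μM biotinylated peptide, 0.5 μM ATP and 2.2 nM [γ-33P]ATP in 60 mM Hepes pH 7.5, 3 mM MgCl2, 3 mM MnCl2, 2 mM DTT. 60 min at room temperature, EDTA stop, streptavidin PVT beads read on Leadseeker.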

SKOV3 = assay: Cellular proliferation assay (Alamar blue), SKOV3; format: cell-based; conditions: 72 hours with compound, 10% FCS; for pIC50 SKOV3: SKOV3 cells; for IC50: Homo sapiens, SK-OV-3, SKOV3 cells, read-out: pIC50 SKOV3 (converted)
Method: (§1) […] functional properties of these compounds was tested in cellular proliferation assays on a panel of different cell lines in the presence of 10% FCS serum (37° C. and 5% (v/v) CO2). In a first step these cells were seeded and incubated for 24 hours in the absence of compound. In the second step the cells were incubated for 72 hours with the compounds to be tested for 72 hours. The viable cell number was finally assessed in a standard Alamar blue cell viability assay.
(§2) The viable cell number was assessed by incubation for either 4 h (HCT-116, H1299, H460) 6 h (SKOV3, HT29, U87-MG, Colo205) or 24 h (A2780, PC3, MDA-MB-231, A549, MCF-7) with Alamar blue (Resazurin 9 μg/ml, K-Ferrocyanide 90 μM K-Ferricyanide 90 μM) and the converted fluorescent product was quantified on a fluorescent plate readed (544 nm/590 nm). Effect of the compounds is calculated as of on control cells.

MDA/MB231 = assay: Cellular proliferation assay (Alamar blue), MDA/MB231; format: cell-based; conditions: MDA/MB231 cells, 72 hours with compound, 10% FCS; for IC50: Homo sapiens, MDA-MB-231, 72 h, read-out: pIC50 MDA/MB231 (converted)
Outline: (§3)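 Proliferation was assessed over 72 h of compound treatment, following 24 h of seeding without compound, under 10% FCS, 37° C. and 5% CO2. Fluorescent resazurin product was measured and compared with control cells.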

PLK4 (h) = PLK4 (h) (Homo sapiens, UniProt O00444); assay: PLK-4 human kinase assay (SPA); format: biochemical; conditions: for IC50: read-out: PLK4 pIC50 (converted)
PLK4 (h), sequence (O00444 whole entry): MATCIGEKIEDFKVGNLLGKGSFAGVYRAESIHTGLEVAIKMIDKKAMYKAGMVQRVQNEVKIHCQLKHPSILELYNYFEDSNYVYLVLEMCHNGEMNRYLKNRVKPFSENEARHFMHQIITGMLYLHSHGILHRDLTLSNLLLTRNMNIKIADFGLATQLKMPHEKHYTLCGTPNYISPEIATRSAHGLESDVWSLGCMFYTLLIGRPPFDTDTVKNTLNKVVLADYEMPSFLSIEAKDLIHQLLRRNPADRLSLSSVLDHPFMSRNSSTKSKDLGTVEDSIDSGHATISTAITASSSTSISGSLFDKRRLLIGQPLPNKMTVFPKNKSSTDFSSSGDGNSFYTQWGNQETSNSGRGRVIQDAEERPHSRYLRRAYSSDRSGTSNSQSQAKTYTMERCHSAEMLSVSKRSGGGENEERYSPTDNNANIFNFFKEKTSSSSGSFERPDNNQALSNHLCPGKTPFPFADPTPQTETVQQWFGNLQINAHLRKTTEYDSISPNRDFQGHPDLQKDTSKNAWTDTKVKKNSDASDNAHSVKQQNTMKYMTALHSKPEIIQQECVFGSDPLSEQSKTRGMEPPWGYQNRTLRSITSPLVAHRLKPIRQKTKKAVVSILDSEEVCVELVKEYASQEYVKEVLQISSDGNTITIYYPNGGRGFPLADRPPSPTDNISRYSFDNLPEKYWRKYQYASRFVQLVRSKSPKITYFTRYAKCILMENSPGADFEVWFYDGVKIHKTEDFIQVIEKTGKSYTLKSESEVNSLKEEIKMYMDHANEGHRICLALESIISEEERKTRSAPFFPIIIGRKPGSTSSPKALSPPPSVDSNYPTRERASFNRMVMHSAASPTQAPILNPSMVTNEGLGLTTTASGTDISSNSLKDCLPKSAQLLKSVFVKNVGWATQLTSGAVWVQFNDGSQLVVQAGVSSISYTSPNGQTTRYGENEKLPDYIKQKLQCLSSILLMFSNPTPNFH
Outline: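 Radiometric readout: 33P-labelled peptide captured on streptavidin SPA beads after EDTA stop, imaged by Leadseeker. Reaction ran 60 min at room temperature in Hepes pH 8.0 buffer. It contained 1 μM ATP with 2 nM [γ-33P]ATP, 10 μM biotinylated peptide and PLK4 (h) at 19 μg/ml.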

U87MG = assay: Cellular proliferation assay (Alamar blue), U87MG; format: cell-based; conditions: U87MG cells, 72 hours with compound, 10% FCS; for IC50: Homo sapiens, U-87 MG, 72 h, read-out: pIC50 U87MG (converted)
Outline: as §3

GSK3β (h) = GSK3β (h) (Homo sapiens, UniProt P49841); assay: GSK-3β human kinase assay (SPA); format: biochemical; conditions: for IC50: read-out: GSK3B pIC50 (converted)
GSK3β (h), sequence (P49841 whole entry): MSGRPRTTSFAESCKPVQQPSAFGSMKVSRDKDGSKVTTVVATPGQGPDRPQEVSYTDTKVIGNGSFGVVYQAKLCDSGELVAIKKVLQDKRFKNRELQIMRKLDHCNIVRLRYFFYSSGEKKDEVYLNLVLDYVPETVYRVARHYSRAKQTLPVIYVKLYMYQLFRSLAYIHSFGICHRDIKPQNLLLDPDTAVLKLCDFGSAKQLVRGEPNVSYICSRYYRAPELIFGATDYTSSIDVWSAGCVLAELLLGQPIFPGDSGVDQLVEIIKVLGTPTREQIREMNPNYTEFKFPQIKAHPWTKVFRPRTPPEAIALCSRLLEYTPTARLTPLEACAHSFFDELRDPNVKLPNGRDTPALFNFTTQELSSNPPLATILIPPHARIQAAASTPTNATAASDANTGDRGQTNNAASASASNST
Outline: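 Radiometric SPA read-out: after EDTA stop, biotinylated 33P-labelled peptide bound streptavidin PVT beads and was imaged on Leadseeker. Reaction: 60 min, room temperature, GSK3β (h) at 1 μg/ml, 1 μM substrate peptide, 1 μM ATP with 2 nM [γ-33P]ATP, Tris pH 7.4/MgCl2/DTT buffer.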

H1299 = assay: Cellular proliferation assay (Alamar blue), H1299; format: cell-based; conditions: H1299 cells, 72 hours with compound, 10% FCS; for IC50: Homo sapiens, NCI-H1299, 72 h, read-out: pIC50 H1299 (converted)
Outline: as §3

CDK1/CyclinB (h) = CDK1/CyclinB (h) (Homo sapiens, UniProt P06493); assay: CDK1/CyclinB human kinase assay (FRET); format: biochemical; conditions: for IC50: read-out: CDK1 pIC50 (converted)
CDK1/CyclinB (h), sequence (P06493 whole entry): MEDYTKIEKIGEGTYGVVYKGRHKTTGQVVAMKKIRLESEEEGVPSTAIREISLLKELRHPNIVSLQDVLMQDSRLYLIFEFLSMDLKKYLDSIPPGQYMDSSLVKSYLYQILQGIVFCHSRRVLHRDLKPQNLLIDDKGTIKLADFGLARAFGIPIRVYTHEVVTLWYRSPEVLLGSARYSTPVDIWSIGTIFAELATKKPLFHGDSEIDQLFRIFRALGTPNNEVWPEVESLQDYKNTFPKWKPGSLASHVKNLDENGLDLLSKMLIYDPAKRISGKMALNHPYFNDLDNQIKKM
CDK1/CyclinB (h), sequence (P14635 whole entry partner): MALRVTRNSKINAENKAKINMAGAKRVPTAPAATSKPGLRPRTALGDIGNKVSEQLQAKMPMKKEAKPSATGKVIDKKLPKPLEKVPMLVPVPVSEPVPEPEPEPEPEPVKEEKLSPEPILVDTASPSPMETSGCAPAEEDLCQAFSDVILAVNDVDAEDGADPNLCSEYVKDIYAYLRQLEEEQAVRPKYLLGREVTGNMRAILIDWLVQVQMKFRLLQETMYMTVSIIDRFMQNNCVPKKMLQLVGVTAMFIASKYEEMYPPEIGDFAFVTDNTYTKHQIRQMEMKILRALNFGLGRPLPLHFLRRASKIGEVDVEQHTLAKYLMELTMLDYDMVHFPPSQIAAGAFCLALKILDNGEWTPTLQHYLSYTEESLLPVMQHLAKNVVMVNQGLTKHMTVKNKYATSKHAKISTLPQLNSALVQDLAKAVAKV
Outline: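 Z'-LYTE FRET format: 0.2 μg/ml enzyme with 2 μM Ser/Thr peptide 12 and 10 μM ATP in 50 mM Hepes pH 7.5, 10 mM MgCl2, 1 mM EGTA, 0.01% Brij-35, 60 min at room temperature. Protease development 60 min; coumarin/fluorescein emission ratio (460/538 nm, excitation 390 nm) reports phosphorylation.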

A2780 = assay: Cellular proliferation assay (Alamar blue), A2780; format: cell-based; conditions: A2780 cells, 72 hours with compound, 10% FCS; for IC50: Homo sapiens, A2780, 72 h, read-out: pIC50 A2780 (converted)
Outline: as §3

PC-3 = assay: Cellular proliferation assay (Alamar blue), PC-3; format: cell-based; conditions: PC-3 cells, 72 hours with compound, 10% FCS; for IC50: Homo sapiens, PC-3, 72 h, read-out: pIC50 PC-3 (converted)
Outline: as §3

HCT-116 = assay: Cellular proliferation assay (Alamar blue), HCT-116; format: cell-based; conditions: HCT-116 cells, 72 hours with compound, 10% FCS; for IC50: Homo sapiens, HCT-116, 72 h, read-out: pIC50 HCT-116 (converted)
Outline: as §3

Colo205 = assay: Cellular proliferation assay (Alamar blue), Colo205; format: cell-based; conditions: Homo sapiens, COLO 205, Colo205 cells, 72 hours with compound, 10% FCS, read-out: pIC50 Colo205 (converted)
Method: as §1, §2

A549 = assay: Cellular proliferation assay (Alamar blue), A549; format: cell-based; conditions: Homo sapiens, A549 cells, 72 hours with compound, 10% FCS, read-out: pIC50 A549 (converted)
Method: as §1, §2

DU-145 = assay: Cellular proliferation assay (Alamar blue), DU-145; format: cell-based; conditions: Homo sapiens, DU-145 cells, 72 hours with compound, 10% FCS, read-out: pIC50 DU-145 (converted)
Method: as §1, §2

SK-N-SH = assay: Cellular proliferation assay (Alamar blue), SK-N-SH; format: cell-based; conditions: Homo sapiens, SK-N-SH cells, 72 hours with compound, 10% FCS, read-out: pIC50 SK-N-SH (converted)
Method: as §1, §2

HT-29 = assay: Cellular proliferation assay (Alamar blue), HT-29; format: cell-based; conditions: Homo sapiens, HT-29 cells, 72 hours with compound, 10% FCS, read-out: pIC50 HT-29 (converted)
Method: as §1, §2

MCF-7 = assay: Cellular proliferation assay (Alamar blue), MCF-7; format: cell-based; conditions: Homo sapiens, MCF7, MCF-7 cells, 72 hours with compound, 10% FCS, read-out: pIC50 MCF-7 (converted)
Method: as §1, §2

AuroraB (h), sequence (Q96GD4 whole entry): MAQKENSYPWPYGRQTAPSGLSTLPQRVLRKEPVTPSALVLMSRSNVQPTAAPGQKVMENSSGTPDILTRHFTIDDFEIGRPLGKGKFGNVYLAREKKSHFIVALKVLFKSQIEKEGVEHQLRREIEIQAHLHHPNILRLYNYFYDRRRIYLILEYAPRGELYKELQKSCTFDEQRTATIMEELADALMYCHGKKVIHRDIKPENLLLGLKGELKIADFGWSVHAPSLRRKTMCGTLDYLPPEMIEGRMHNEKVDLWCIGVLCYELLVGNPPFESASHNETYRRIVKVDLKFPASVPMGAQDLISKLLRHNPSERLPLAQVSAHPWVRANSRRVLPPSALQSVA

## CN1CCN(c2ccc3cc2CN(C)CCCCCC(=O)N(C)CCCNc2ncnc4c2C(=CN3)C(=O)N4)CC1 (mixture of isomers) [Compound 117]
AuroraB (h)
  AuroraB pIC50: <5
SKOV3
  pIC50 SKOV3: <5
MDA/MB231
  pIC50 MDA/MB231: 5.06
PLK4 (h)
  PLK4 pIC50: 6.5
U87MG
  pIC50 U87MG: 5.55
GSK3β (h)
  GSK3B pIC50: 5.58
H1299
  pIC50 H1299: 5.15
CDK1/CyclinB (h)
  CDK1 pIC50: <5
A2780
  pIC50 A2780: 5.63
PC-3
  pIC50 PC-3: <5

## CN1CCCNc2ncnc3c2C(=CNc2ccc(N4CCOCC4)c(c2)OCCCCCC1=O)C(=O)N3 (mixture of isomers) [Compound 120]
AuroraB (h)
  AuroraB pIC50: 5.58
SKOV3
  pIC50 SKOV3: 5.02
MDA/MB231
  pIC50 MDA/MB231: 5.03
PLK4 (h)
  PLK4 pIC50: 6.67
U87MG
  pIC50 U87MG: 5.99
GSK3β (h)
  GSK3B pIC50: 6.73
HCT-116
  pIC50 HCT-116: 5.38
H1299
  pIC50 H1299: 5.68
CDK1/CyclinB (h)
  CDK1 pIC50: 5.86
A2780
  pIC50 A2780: 5.95
PC-3
  pIC50 PC-3: <5

## CN1CCCNc2ncnc3c2C(=CNc2ccc(N4CCOCC4)c(c2)OCCCCC1=O)C(=O)N3 (mixture of isomers) [Compound 121]
AuroraB (h)
  AuroraB pIC50: 6.15
SKOV3
  pIC50 SKOV3: 5.78
MDA/MB231
  pIC50 MDA/MB231: 5.20
PLK4 (h)
  PLK4 pIC50: 7.22
U87MG
  pIC50 U87MG: 6.66
GSK3β (h)
  GSK3B pIC50: 7.45
HCT-116
  pIC50 HCT-116: 5.99
H1299
  pIC50 H1299: 6.32
CDK1/CyclinB (h)
  CDK1 pIC50: 6.24
A2780
  pIC50 A2780: 6.48
PC-3
  pIC50 PC-3: 5.19

## COc1ccc2cc1OCCCC(=O)N(C)CCN(C)C1CCN(CC1)c1ncnc3c1/C(=C/N2)C(=O)N3 [Compound 34]
Colo205
  IC50: > 10 µM
SKOV3
  IC50: > 10 µM
PLK4 (h)
  IC50: > 10 µM
A549
  IC50: > 10 µM
DU-145
  IC50: > 10 µM
SK-N-SH
  IC50: 5.25 µM
HT-29
  IC50: ~8.32 µM
MCF-7
  IC50: > 10 µM

## CN1CCN(c2ccc3cc2CN(C)CCCC(=O)N(C)CCNc2ncnc4c2/C(=C/N3)C(=O)N4)CC1 [Compound 116]
AuroraB (h)
  IC50: > 10 µM
SKOV3
  IC50: > 10 µM
MDA/MB231
  IC50: 5.25 µM
PLK4 (h)
  IC50: 5.89 µM
U87MG
  IC50: 3.24 µM
GSK3β (h)
  IC50: 3.09 µM
HCT-116
  IC50: 6.46 µM
H1299
  IC50: 9.77 µM
CDK1/CyclinB (h)
  IC50: > 10 µM
A2780
  IC50: 3.72 µM
PC-3
  IC50: > 10 µM

## COc1cc2cc(c1OC)CN(C)CCCC(=O)N(C)CCNc1ncnc3c1/C(=C/N2)C(=O)N3 [Compound 118]
AuroraB (h)
  IC50: > 10 µM
SKOV3
  IC50: > 10 µM
MDA/MB231
  IC50: > 10 µM
PLK4 (h)
  IC50: > 10 µM
U87MG
  IC50: > 10 µM
GSK3β (h)
  IC50: > 10 µM
HCT-116
  IC50: > 10 µM
H1299
  IC50: > 10 µM
CDK1/CyclinB (h)
  IC50: > 10 µM
A2780
  IC50: > 10 µM
PC-3
  IC50: > 10 µM

## COc1cc2cc(c1OC)CN(C)CCCCC(=O)N(C)CCNc1ncnc3c1/C(=C/N2)C(=O)N3 [Compound 119]
AuroraB (h)
  IC50: > 10 µM
SKOV3
  IC50: > 10 µM
MDA/MB231
  IC50: > 10 µM
PLK4 (h)
  IC50: 7.41 µM
U87MG
  IC50: > 10 µM
GSK3β (h)
  IC50: > 10 µM
H1299
  IC50: > 10 µM
CDK1/CyclinB (h)
  IC50: 6.31 µM
A2780
  IC50: 2.57 µM
PC-3
  IC50: > 10 µM

## CN1CCN(c2ccc3cc2CN(C)CCCCC(=O)N(C)CCCNc2ncnc4c2/C(=C/N3)C(=O)N4)CC1 [Compound 122]
AuroraB (h)
  IC50: > 10 µM
SKOV3
  IC50: 8.32 µM
MDA/MB231
  IC50: 1.95 µM
PLK4 (h)
  IC50: 0.851 µM
U87MG
  IC50: 0.708 µM
GSK3β (h)
  IC50: 0.575 µM
H1299
  IC50: 1.2 µM
CDK1/CyclinB (h)
  IC50: 4.68 µM
A2780
  IC50: 0.288 µM
PC-3
  IC50: 7.94 µM

## COc1cc2cc(c1OC)CN(C)CC(=O)N(C)CCNc1ncnc3c1/C(=C/N2)C(=O)N3 [Compound 123]
AuroraB (h)
  IC50: > 10 µM
SKOV3
  IC50: > 10 µM
MDA/MB231
  IC50: > 10 µM
PLK4 (h)
  IC50: > 10 µM
U87MG
  IC50: > 10 µM
GSK3β (h)
  IC50: > 10 µM
HCT-116
  IC50: > 10 µM
H1299
  IC50: > 10 µM
CDK1/CyclinB (h)
  IC50: > 10 µM
A2780
  IC50: > 10 µM
PC-3
  IC50: > 10 µM
